Data on 17 molecules can be found in BindingDB's records for patent US20250144094 (Erasca, 2025).

The term IC50 denotes the concentration that inhibits the measured activity by half. Low values mean greater potency, high ones weaker potency.

Structures are written as SMILES.

The first test addresses T1, Serine/threonine-protein kinase ULK1 (Homo sapiens, UniProt O75385).
T1 sequence (O75385 whole entry): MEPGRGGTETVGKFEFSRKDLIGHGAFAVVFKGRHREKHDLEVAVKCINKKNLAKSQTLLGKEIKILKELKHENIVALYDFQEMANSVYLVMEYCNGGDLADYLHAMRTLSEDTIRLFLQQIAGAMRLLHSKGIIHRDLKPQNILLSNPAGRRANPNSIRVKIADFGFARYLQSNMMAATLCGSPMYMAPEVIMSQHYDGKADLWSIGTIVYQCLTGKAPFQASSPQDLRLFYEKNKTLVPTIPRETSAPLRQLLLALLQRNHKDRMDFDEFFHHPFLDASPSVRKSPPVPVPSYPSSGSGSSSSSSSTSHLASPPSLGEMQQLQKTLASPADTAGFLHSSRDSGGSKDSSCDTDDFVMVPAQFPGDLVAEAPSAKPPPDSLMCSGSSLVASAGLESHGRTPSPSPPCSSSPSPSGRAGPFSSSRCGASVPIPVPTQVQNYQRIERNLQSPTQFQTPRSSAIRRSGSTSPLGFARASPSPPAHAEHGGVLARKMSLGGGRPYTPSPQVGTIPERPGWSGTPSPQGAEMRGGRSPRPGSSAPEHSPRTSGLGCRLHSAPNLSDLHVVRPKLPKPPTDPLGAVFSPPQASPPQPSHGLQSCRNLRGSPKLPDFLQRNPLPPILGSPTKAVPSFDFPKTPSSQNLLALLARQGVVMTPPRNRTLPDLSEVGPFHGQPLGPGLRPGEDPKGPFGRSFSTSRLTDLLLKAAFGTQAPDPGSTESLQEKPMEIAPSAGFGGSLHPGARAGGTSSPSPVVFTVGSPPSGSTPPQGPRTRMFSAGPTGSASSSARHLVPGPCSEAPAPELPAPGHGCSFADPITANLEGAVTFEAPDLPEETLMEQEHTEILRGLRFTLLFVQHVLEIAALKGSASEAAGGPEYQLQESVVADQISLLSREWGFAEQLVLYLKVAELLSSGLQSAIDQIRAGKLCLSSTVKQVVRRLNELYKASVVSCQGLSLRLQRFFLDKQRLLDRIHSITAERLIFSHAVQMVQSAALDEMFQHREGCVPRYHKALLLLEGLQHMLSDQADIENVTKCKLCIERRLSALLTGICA
Description: ADP Glo Kinase Activity Assay. As for the experimental part:
(§1) Table 3: ULK1 inhibitor potency was determined using the luminescent ADP Glo Kinase Assay (Promega), a universal ADP detection system that measures kinase activity by quantifying the amount of ADP produced during a kinase reaction. ULK1 kinase reactions are performed in a standard 96-well microplate (20 uL reaction volume) at 25° C. for 40 minutes in the presence or absence of the test compound (12-point dilution series starting at 10 uM). Addition of MBP substrate and ATP initiates the kinase reaction.The standard ADP Glo assay is performed in two steps. In step one, following the kinase reaction, an equal volume of ADP-Glo™ Reagent (20 uL) is added to terminate the kinase reaction and deplete the remaining ATP. In the second step, the Kinase Detection Reagent (10 uL) is added to simultaneously convert ADP to ATP and allow the newly synthesized ATP to be measured using a luciferase/luciferin reaction. Step two of the ADP Glo assay is performed in a white 384-well plate (20 uL final volume). Thirty minutes after the addition of the Detection reagent, light generated from the luciferase reaction is measured (1 second exposure) using a microplate compatible luminometer (CLARIOstar, BMG Labtech).Inhibition of ULK1 kinase activity is determined for each test compound by comparison to DMSO only control wells.
On the technique in general: ADP-Glo turns the ADP formed in a reaction into a luminescent signal.
For the molecule `CS(=O)(=O)c1csc(-c2nc(Nc3cn(C4CNC4)nc3C3CC3)ncc2C(F)(F)F)c1` [US20250144094, Example 130], the IC50 is less than 10 nM.
`COCCS(=O)(=O)c1csc(-c2nc(Nc3cc4c(cc3C3CC3)CNCC4)ncc2C(F)(F)F)c1` [US20250144094, Example 65] came in with a 50% inhibitory concentration (IC50) of less than 10 nM.
`CN1CCc2cc(Nc3ncc(C(F)(F)F)c(-c4cc(S(C)(=O)=O)cs4)n3)ccc2C1` [US20250144094, Example 106] showed a 50% inhibitory concentration (IC50) of less than 10 nM.
As to `CN1CCN(c2ccc(Nc3ncc(C(F)(F)F)c(-c4cc(S(C)(=O)=O)cs4)n3)c(Cl)c2)CC1` [US20250144094, Example 112], the IC50 was less than 10 nM.
For `CN1Cc2ccc(Nc3ncc(C(F)(F)F)c(-c4cc(S(C)(=O)=O)cs4)n3)cc2C1` [US20250144094, Example 81], the concentration for half-maximal inhibition (IC50) was less than 10 nM.
As to `O=C1NCCS(=O)(=O)c2cc(-c3nc(Nc4cc5c(cc4F)CNCC5)ncc3C(F)(F)F)sc21` [US20250144094, Example 134], the half-inhibitory concentration (IC50) was less than 10 nM.

Another test has as its target T2, Serine/threonine-protein kinase ULK1 [1-649] (UniProt O75385).
T2 construct: 1-649
T2 sequence (O75385 whole entry): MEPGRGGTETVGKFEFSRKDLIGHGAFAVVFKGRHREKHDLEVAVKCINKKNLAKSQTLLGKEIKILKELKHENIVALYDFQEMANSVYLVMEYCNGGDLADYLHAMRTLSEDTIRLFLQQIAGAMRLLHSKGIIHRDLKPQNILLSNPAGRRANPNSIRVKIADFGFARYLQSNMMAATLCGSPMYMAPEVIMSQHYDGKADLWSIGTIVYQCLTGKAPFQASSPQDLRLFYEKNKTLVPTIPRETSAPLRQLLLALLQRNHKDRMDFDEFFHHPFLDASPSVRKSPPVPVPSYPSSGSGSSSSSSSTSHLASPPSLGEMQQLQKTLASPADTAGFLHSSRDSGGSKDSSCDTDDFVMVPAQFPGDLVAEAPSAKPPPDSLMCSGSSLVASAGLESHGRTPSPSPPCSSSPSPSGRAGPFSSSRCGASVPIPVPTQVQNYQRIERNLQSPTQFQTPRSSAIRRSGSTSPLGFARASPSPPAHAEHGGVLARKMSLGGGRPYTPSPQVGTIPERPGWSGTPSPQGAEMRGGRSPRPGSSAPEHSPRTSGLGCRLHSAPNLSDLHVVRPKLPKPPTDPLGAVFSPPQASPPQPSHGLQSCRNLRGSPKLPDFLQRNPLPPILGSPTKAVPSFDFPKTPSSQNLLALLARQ
Description: ADP Glo Kinase Activity Assay. As to the method:
as §1, with “4:” for “3:”, “μL” for “uL”, “μM).” for “uM).”, “peptide” for “MBP”, “μL)” for “uL)”, “wells. Inhibitor IC50 was calculated by plotting the change in luminescence after 30 minutes (response) versus inhibitor concentration (in log molar) then applying the four-parameter variable slope curve fit (GraphPad Prism).” for “wells.”
`CCN1CCc2cc(Nc3ncc(C(F)(F)F)c(-c4cc5c(s4)C(=O)N(C4CCC4)CCS5(=O)=O)n3)c(C3CC3)cc2C1` [US20250144094, Example 226] came in with an IC50 of less than 5 nM.
The same measure, in the same setting: to `O=C1c2sc(-c3nc(Nc4cc5c(cc4Cl)CNCC5)ncc3C(F)(F)F)cc2S(=O)(=O)CCN1CC1CC1` [US20250144094, Example 153] belongs less than 5 nM; to `O=C1c2sc(-c3nc(Nc4cc5c(cc4C4CC4)CN(CCF)CC5)ncc3C(F)(F)F)cc2S(=O)(=O)CCN1C1COC1` [US20250144094, Example 290], less than 5 nM.
On to `CN1CCN(c2ccc(Nc3ncc(C(F)(F)F)c(-c4cc5c(s4)C(=O)N(C)CCS5(=O)=O)n3)c(Cl)c2)CC1` [US20250144094, Example 194], for which the IC50 is less than 5 nM.
Still for that read-out and setting: to `CCc1cc2c(cc1Nc1ncc(C(F)(F)F)c(-c3cc4c(s3)C(=O)N(C3COC3)CCS4(=O)=O)n1)CCNC2` [US20250144094, Example 229] belongs less than 5 nM; to `O=C1c2sc(-c3nc(Nc4ccc(N5CCN(CC6CC6)CC5)cc4C4CC4)ncc3C(F)(F)F)cc2S(=O)(=O)CCN1C1CC1` [US20250144094, Example 251], less than 5 nM; to `NC(=O)CN1CCc2cc(Nc3ncc(C(F)(F)F)c(-c4cc5c(s4)C(=O)N(C4CC4)CCS5(=O)=O)n3)c(C3CC3)cc2C1` [US20250144094, Example 278], less than 5 nM.
The same measure, in the same setting: to `CCc1cc(C2CCNCC2)ccc1Nc1ncc(C(F)(F)F)c(-c2cc3c(s2)C(=O)N(C2CC2)CCS3(=O)=O)n1` [US20250144094, Example 281] belongs 7.5 nM; to `CCN1CCc2cc(Nc3ncc(C(F)(F)F)c(-c4cc5c(s4)C(=O)N(CC(F)(F)F)CCS5(=O)=O)n3)c(C3CC3)cc2C1` [US20250144094, Example 245], less than 5 nM.
The same measure, in the same setting: next, `C[C@@H]1CN(c2ccc(Nc3ncc(C(F)(F)F)c(-c4cc5c(s4)C(=O)N(C)CCS5(=O)=O)n3)c(C3CC3)c2)CCN1` [US20250144094, Example 365]: less than 5 nM.
`CN1CCS(=O)(=O)c2cc(-c3nc(Nc4ccc(N5CC6CC(C5)N6)cc4C4CC4)ncc3C(F)(F)F)sc2C1=O` [US20250144094, Example 381] yielded an IC50 of less than 5 nM.
